# Experimental data as given in patent publication US20230141718A1, “METHODS OF TREATING GLIOBLASTOMA” (CELGENE QUANTICEL RESEARCH, INC., priority 2021, published 2023).
# Legend:
# [1] = Safety (TRAEs/TEAEs), CC-90010-GBM-002 Parts A and B; format: in vivo
# Source text: This was then followed by a break in treatment therapy, e.g., from 1 to up to 4 weeks. […] Adjuvant therapy cycles were repeated from 2 to 6 times. After adjuvant therapy, was a monotherapy treatment.
# The demographics and characteristics of treated patients are described in the below table.
# [2] = cited from earlier work
# glioblastoma = conditions: in vivo; cited from earlier work
compound,measurement,setting,value
"Cn1nnc2c(C(N)=O)ncn2c1=O [TMZ, 3,4-dihydro-3-methyl-4-oxoimidazo[5,1-d]-as-tetrazine-8-carboxamide, reference compound]",patients with TRAEs related to TMZ,[1]; Part B arm A,75%
same,patients with nausea related to TMZ,[1]; Part B arm A,46%
same,patients with thrombocytopenia related to TMZ,[1]; Part B arm A,46%
same,patients with TRAEs related to TMZ,[1]; Part B arm B,73%
same,patients with thrombocytopenia related to TMZ,[1]; Part B arm B,40%
C#Cc1cccc(Nc2ncnc3cc(OCCOC)c(OCCOC)cc23)c1 [erlotinib],tissue:plasma ratio,[2]; brain tumor tissue,0.06-0.08
COc1cc2ncnc(Nc3ccc(F)c(Cl)c3)c2cc1OCCCN1CCOCC1 [gefitinib],median concentration in tumor tissue,[2]; glioblastoma tumor tissue,4100 ng/g
same,median concentration in plasma,[2]; in vivo,181 ng/mL
same,antitumor activity in glioblastoma,glioblastoma,neither lapatinib nor gefitinib have shown evidence of antitumor activity
CS(=O)(=O)CCNCc1ccc(-c2ccc3ncnc(Nc4ccc(OCc5cccc(F)c5)c(Cl)c4)c3c2)o1 [lapatinib],"tissue:plasma ratio, mean",[2]; brain tumor tissue,13.0
same,antitumor activity in glioblastoma,glioblastoma,neither lapatinib nor gefitinib have shown evidence of antitumor activity
O=C(c1cc(Cc2n[nH]c(=O)c3ccccc23)ccc1F)N1CCN(C(=O)C2CC2)CC1 [olaparib],"tissue:plasma ratio, mean",[2]; brain tumor tissue,0.25
